Laboratory results taken from patent EP4252780A1, “BIOLOGICALLY ACTIVE MATERIAL CONJUGATE HAVING BIOTIN MOIETY, FATTY ACID MOIETY, OR COMBINATION THEREOF COUPLED THERETO” (priority 2020, dated 2022).
Non-standard residues stand in square brackets, D forms with d. No end group written: not given here. F14 = C20-Glu-EG2-EG2-MAL; B38 = not defined here; Aib = CC(C)(N)C(=O)O

test: body weight change after 2 weeks of subcutaneous administration in obese mouse model; type: in vivo; details: subcutaneous for 2 weeks, FIG. 10
Method: Conjugates 58 and 59 were subcutaneously administered for 2 weeks into an obese mouse model, then body weight changes were measured.

With “Conjugate 59: polypeptide SEQ ID NO 8; biotin moiety B38 at K12; fatty acid moiety F14 at C30 (H[Aib]QGTFTSDYSK(B38)YLDEQAAKEFVQWLMNTC(F14); reading uncertain)” the “body weight compared to the untreated group” value was “substantially reduced”.

test: body weight reduction and feed intake over 24 hours after oral administration; type: in vivo; details: oral administration to mice

Going from “Polypeptide SEQ ID NO 28: amylin derivative KCNTATCATQRLADFLLRHSSNNFGAIPSSTNVGSRTY (KCNTATCATQRLADFLRHSSNNFGAIPSSTNVGSRTY; Amylin derivative) [reference compound]” to “Polypeptide SEQ ID NO 26: amylin derivative KCNTATCATQRLADFLLRHSSPNFGAIPSSTNVGSRTY (KCNTATCATQRLADFLRHSSPNFGAIPSSTNVGSRTY; Amylin derivative) [reference compound]”, the “Weight loss (%) compared to untreated group” value (from here on “Weight loss (%)”) falls from -1.11 ± 0.84% to -3.13 ± 1.05%.

“Conjugate 33: polypeptide SEQ ID NO 24; biotin moiety B38 at K1 (K(B38)CNTATCATQRLANFLVHSSNNFGPILPPTNVGSNTY; ends and bridges not checked)” and “Polypeptide SEQ ID NO 24: amylin derivative KCNTATCATQRLANFLVHSSNNFGPILPPTNVGSNTY (Amylin derivative) [reference compound]” are within error of each other in “Weight loss (%)” value: -4.07 ± 1.30% for the first, -2.63 ± 1.06% for the second.

“Polypeptide SEQ ID NO 30: amylin derivative RCNTATCATQRLADFLLRHSSNNFGAIPSSTNVGSKTY (RCNTATCATQRLADFLRHSSNNFGAIPSSTNVGSKTY; Amylin derivative) [reference compound]” and “Conjugate 61: polypeptide SEQ ID NO 24; biotin moiety B38 at K1; fatty acid moiety F11 at K1 (K(B38)CNTATCATQRLANFLVHSSNNFGPILPPTNVGSNTY; ends and bridges not checked; also: fatty acid F11 also at K1, attachment order not given here)” are within error of each other in “Weight loss (%)” value: -1.17 ± 0.76% for the first, -2.96 ± 4.22% for the second.
